Patent US20250134794A1, “BIOACTIVE WALNUT PEPTIDES AND COMPOSITIONS FOR TOPICAL TREATMENT OF SKIN” (L'OREAL, priority 2023, published 2025)
Where no end group is shown, it is not given here.

Experiments:
Type in all cases: cell-based
[1] = system: Adult Dermal Human Fibroblasts; assay: Mitochondrial activity in aged fibroblasts (TMRE-Mitochondrial Membrane Potential Assay Kit); details: 250 μM, 7 days, TMRE stain; control = 1.00
Protocol: Adult Dermal Human Fibroblasts (Lot 2485, Passage 5, Cell Applications) were expanded and seeded into a 12-well glass bottom plate at a density of 10,000 cells/well. Cells were grown in Eagle's Minimal Essential Medium (EMEM) supplemented with Fetal Bovine Serum (FBS) and Penicillin-Streptomycin. Cells attached overnight and then culture media was aspirated and replaced with media containing either 100 uM or 250 uM of Peptide I, Peptide II, or Peptide III. Cells were cultured for 7 days with treatment with renewal of treatment medium every other day with the exception of weekends. On day 7, cells were stained with tetramethylrhodamine ethyl ester (TMRE) and imaged for mitochondrial activity following the protocol in the TMRE-Mitochondrial Membrane Potential Assay Kit (ab113852, Abcam). The active mitochondria (mean intensity normalized to control) were determined and are shown below, in Table 5.

[2] = system: Interleukin 6 (IL-6); assay: Interleukin-6 released from Adult Dermal Human Fibroblasts (LEGENDplex Human Inflammation Panel); details: 4 days treatment, concentration not given (100 uM or 250 uM)
Protocol: (§1) Adult Dermal Human Fibroblasts (Lot 2485, Passage 5, Cell Applications) were expanded and seeded into a 48-well plate at a density of 5,000 cells/well. Cells were grown in Eagle's Minimal Essential Medium (EMEM) supplemented with Fetal Bovine Serum (FBS) and Penicillin-Streptomycin. Cells attached overnight and then culture media was aspirated and replaced with media containing either 100 uM or 250 uM of Peptide I, Peptide II, or Peptide III. Cells were cultured for […] with treatment with renewal of treatment medium every other day with the exception of weekends. Media was collected at the end of the culture period. Inflammatory cytokines were quantified by running a LEGENDplex Human Inflammation Panel 1 13-plex (Catalogue #740809, Biolegend. Protein in the media supernatant was also quantified using the Pierce BCA Protein Assay Kit (Catalogue #23225, ThermoFisher). Microsoft Excel and GraphPad Prism were used for additional analysis and data presentation. The amounts of Interleukin 6 (IL-6) and Interleukin 8 (IL-8) released from the Adult Dermal Human Fibroblasts are shown below in Table 1 and graphically depicted in FIG. 1(a) (for IL-6) and FIG. 1(b) (for IL-8).

[3] = system: epidermal growth factor (EGF); assay: Epidermal growth factor generated by reconstructed human epidermis (LEGENDplex Human Growth Factor Panel); details: 250 μM, 7 days, control = 1.00
Protocol: (§2) Reconstructed human epidermis (RHE) (EPISKIN/S/13, Episkin) was received and samples were prepared for use. Upon arrival, inserts containing the RHE were removed from the multi-plate and placed in a 12-well plate containing maintenance medium. Tissue serving as untreated control were placed in regular maintenance medium; treatment groups were placed in maintenance medium containing 250 uM of Peptide I, II, or III alone or in combination. Medium was aspirated and replaced every other day with the exception of weekends. RHE was cultured at air-liquid interface at 37C, 5% CO2 and saturated humidity for 7 days. Media was collected at the end of the culture period. Growth factors were quantified by running a LEGENDplex Human Growth Factor Panel (Catalogue #740809, Biolegend. Protein in the media supernatant was also quantified using the Pierce BCA Protein Assay Kit (Catalogue #741061, ThermoFisher). Microsoft Excel and GraphPad Prism were used for additional analysis and data presentation. The amounts of epidermal growth factor (EGF), hepatocyte growth factor (HGF), and transforming growth factor alpha (TGFa) generated by the RHE are shown below in Table 2 and graphically shown in FIG. 2(a) (for EGF) and FIG. 2(b) (for HGF), and FIG. 2(c) (for TGFa).

[4] = system: hepatocyte growth factor (HGF); assay: Hepatocyte growth factor generated by reconstructed human epidermis (LEGENDplex Human Growth Factor Panel); details: 250 μM, 7 days, control = 1.00
Protocol: as §2

[5] = system: Keratinocyte stem cells; assay: Holoclone count of keratinocyte stem cells; details: 96 hours, control 24.80 ± 6.14
Protocol: Keratinocyte stem cells (Lot KSC870, Passage 2, Bioalternatives) were seeded in 96-well plates and cultured in Keratinocyte-SFM supplemented with Epidermal Growth Factor and Pituitary Extract. After 4 hours, media was replaced with that containing Peptide II or Peptide III, alone or in combination. Cells were incubated for 96 hours with treatment renewal after 24 hours. After 96 hours, the medium was removed, and cells were fixed with methanol at −20C. Cells were then stained for 10 minutes with a Papanicolaou solution and imaged. The number of holoclone clones were counted. Data was analyzed and plotted using GraphPad Prism. The holocolone count relative to control (normalized) is shown below in Table 3 for different concentrations of peptide II, Peptide III, and combinations of Peptide II and Peptide III.

[6] = system: transforming growth factor alpha (TGFa); assay: Transforming growth factor alpha generated by reconstructed human epidermis (LEGENDplex Human Growth Factor Panel); details: 250 μM, 7 days, control = 1.00
Protocol: as §2

[7] = system: Interleukin 8 (IL-8); assay: Interleukin-8 released from Adult Dermal Human Fibroblasts (LEGENDplex Human Inflammation Panel); details: 4 days treatment, concentration not given (100 uM or 250 uM)
Protocol: as §1

[8] = system: Adult Dermal Human Fibroblasts; assay: Autophagic vacuoles in aged fibroblasts (Autophagy Assay Kit); set-up: key: “↑” indicates and increase; “↓” indicates a decrease; “↔” indicates no change; details: 7 days
Protocol: Adult Dermal Human Fibroblasts (Lot 2485, Passage 5, Cell Applications) were expanded and seeded into a 12-well glass bottom plate at a density of 10,000 cells/well. Cells were grown in Eagle's Minimal Essential Medium (EMEM) supplemented with Fetal Bovine Serum (FBS) and Penicillin-Streptomycin. Cells attached overnight and then culture media was aspirated and replaced with media containing either 100 uM or 250 uM of Peptide I, Peptide II, or Peptide III. Cells were cultured for 7 days with treatment with renewal of treatment medium every other day with the exception of weekends. On day 7, cells were stained and imaged for presence of autophagic vacuoles following the protocol in the Autophagy Assay Kit (ab139484, Abcam). The images were compared to determine whether the number of autophagic vacuoles increased, decreased, or remained unchanged. The results are reported below, in Table 4, where “↑” indicates and increase, “↓” indicates a decrease, and “↔” indicates no change.

Substance | Active Mitochondria (Mean Intensity Normalized to Control) [1] | Pg IL-6/μg Protein ([2]; first line of each peptide) [Pg/μg Protein] | Pg IL-6/μg Protein ([2]; second line of each peptide) [Pg/μg Protein] | EGF/μg Protein [3] | HGF/μg Protein [4] | Holoclone count ([5]; 0.2 mM) | Holoclone count ([5]; 0.4 mM) | TGFa/μg Protein [6] | Pg IL-8/μg Protein ([7]; first line of each peptide) [Pg/μg Protein] | Pg IL-8/μg Protein ([7]; second line of each peptide) [Pg/μg Protein] | Autophagic Vacuoles Presence (Compared to Control) ([8]; 100 μM) | Autophagic Vacuoles Presence (Compared to Control) ([8]; 250 μM)
YVLLPSPK [Peptide II] | 1.00 ± 0.19 | 265.86 ± 58.08 | 257.53 ± 38.82 | 1.23 ± 0.16 | 1.28 ± 0.25 | 27.60 ± 7.59 | 34.30 ± 8.85 | 1.56 ± 0.29 | 20.36 ± 5.39 | 35.68 ± 11.37 | ↑ | ↑
TWLPLPR [Peptide I] | 1.158 ± 0.17 | 154.52 ± 32.33 | 126.97 ± 29.10 | 1.58 ± 0.17 | 0.98 ± 0.20 | – | – | 1.37 ± 0.23 | 22.72 ± 6.45 | 42.71 ± 11.29 | ↑ | ↑
KVPPLLY [Peptide III] | 0.97 ± 0.15 | 291.73 ± 61.03 | 333.61 ± 38.37 | 1.79 ± 0.28 | 1.01 ± 0.17 | 27.40 ± 6.13 | 36.50 ± 5.97 | 1.93 ± 0.60 | 31.14 ± 22.26 | 32.58 ± 4.06 | ↑ | ↔
